From ChEMBL document CHEMBL1137913, “Piperidine-containing beta-arylpropionic acids as potent antagonists of alphavbeta3/alphavbeta5 integrins” (Bioorg Med Chem Lett, 2004) come the findings set out here.

pIC50: −log10 of the molar value.

Data set [1] can be described thus: Inhibition of human Biotinylated Fg binding to immobilized Alpha II biotinylated Fg beta-5.
The target of data set [2] is T1, Integrin alpha-IIb/beta-3 (Homo sapiens, UniProt P05106+P08514). The data set is described as follows: Inhibition of human Biotinylated Fg binding to immobilized Alpha II beta-3. It counts as protein-complex assay.
The target in data set [3] is Integrin alpha-V/beta-3 (Homo sapiens, UniProt P05106+P06756). The data set is described as follows: Inhibition of human vitronectin binding to immobilized Alpha v beta-3. It counts as protein-complex assay.
Data set [4] is described as follows: AUC was determined after peroral administration at 10 mg/kg. It counts as ADME, organism-based. Further details: dose 10 mg/kg, route oral. As to conditions: rat, plasma, po.
Data set [5] in a line: Oral bioavailability (dose in 5% dextrose in water at pH 2). It counts as ADME, organism-based. As to conditions: rat, in vivo.
The nature of data set [6]: Clearance was determined after intravenous administration at 2 mg/kg. It counts as ADME, organism-based. On the set-up: dose 2 mg/kg, route intravenous. As to conditions: rat, in vivo.
A short description of data set [7]: Half life was determined after peroral administration at 10 mg/kg. Format: ADME, organism-based. On the set-up: dose 10 mg/kg, route oral. As to conditions: rat, in vivo, po.
In data set [8] the target is T1, Integrin alpha-IIb/beta-3. The data set is described as follows: Inhibition of human Biotinylated Fg binding to immobilized Alpha IIb beta-3 (N=1). Format: protein-complex assay.

Sequence of Integrin alpha-V/beta-3 (P05106 27-788 limits assumed): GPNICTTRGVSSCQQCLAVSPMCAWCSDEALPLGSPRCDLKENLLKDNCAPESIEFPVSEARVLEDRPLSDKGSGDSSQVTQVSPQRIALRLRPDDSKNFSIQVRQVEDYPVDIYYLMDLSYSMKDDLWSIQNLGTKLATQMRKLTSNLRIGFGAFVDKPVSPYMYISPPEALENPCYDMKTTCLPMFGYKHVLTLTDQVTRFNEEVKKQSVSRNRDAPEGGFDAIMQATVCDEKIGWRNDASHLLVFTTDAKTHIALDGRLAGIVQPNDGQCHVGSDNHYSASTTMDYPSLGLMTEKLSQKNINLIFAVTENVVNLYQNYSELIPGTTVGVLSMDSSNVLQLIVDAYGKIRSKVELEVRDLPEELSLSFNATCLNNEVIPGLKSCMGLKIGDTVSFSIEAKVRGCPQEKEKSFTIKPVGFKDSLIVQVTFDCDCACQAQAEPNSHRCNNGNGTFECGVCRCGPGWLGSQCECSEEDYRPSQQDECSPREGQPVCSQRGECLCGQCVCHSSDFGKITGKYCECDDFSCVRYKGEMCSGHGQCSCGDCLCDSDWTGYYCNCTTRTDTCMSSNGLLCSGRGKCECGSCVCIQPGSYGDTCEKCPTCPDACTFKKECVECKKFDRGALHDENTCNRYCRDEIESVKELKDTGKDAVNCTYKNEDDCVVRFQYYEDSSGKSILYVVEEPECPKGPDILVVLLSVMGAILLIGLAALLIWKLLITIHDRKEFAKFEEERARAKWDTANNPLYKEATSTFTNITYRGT
Sequence of Integrin alpha-V/beta-3 (P06756 31-889 limits assumed): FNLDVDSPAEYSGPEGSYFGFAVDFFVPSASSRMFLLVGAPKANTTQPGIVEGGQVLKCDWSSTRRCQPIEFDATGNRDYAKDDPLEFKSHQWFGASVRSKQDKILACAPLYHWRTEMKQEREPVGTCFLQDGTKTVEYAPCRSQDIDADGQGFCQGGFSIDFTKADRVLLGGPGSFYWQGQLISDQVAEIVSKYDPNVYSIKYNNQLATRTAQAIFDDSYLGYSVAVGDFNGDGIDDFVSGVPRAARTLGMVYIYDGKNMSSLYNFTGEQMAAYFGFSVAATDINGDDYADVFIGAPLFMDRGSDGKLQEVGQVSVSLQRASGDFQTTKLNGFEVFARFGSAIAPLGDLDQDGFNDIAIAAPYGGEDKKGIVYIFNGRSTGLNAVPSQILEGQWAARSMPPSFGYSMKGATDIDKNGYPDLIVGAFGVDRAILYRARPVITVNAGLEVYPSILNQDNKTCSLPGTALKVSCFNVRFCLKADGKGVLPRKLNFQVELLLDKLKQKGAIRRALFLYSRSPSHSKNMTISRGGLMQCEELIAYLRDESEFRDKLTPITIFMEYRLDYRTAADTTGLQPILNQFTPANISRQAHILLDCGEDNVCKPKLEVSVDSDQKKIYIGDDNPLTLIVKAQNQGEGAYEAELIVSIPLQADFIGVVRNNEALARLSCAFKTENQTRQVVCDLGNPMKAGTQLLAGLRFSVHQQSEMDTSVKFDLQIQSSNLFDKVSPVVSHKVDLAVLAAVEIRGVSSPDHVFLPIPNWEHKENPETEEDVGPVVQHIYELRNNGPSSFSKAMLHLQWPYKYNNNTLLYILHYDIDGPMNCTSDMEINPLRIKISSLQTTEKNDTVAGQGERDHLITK
Sequence of Integrin alpha-V/beta-3 (P06756 891-1048 limits assumed): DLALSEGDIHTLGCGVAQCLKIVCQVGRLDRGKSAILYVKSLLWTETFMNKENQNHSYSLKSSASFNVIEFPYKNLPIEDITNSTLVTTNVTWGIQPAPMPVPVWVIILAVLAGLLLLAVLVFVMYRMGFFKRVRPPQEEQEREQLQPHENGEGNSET
T1 sequence (P05106 27-788 limits assumed): as the sequence (P05106 27-788 limits assumed) above
T1 sequence (P08514 32-887 limits assumed): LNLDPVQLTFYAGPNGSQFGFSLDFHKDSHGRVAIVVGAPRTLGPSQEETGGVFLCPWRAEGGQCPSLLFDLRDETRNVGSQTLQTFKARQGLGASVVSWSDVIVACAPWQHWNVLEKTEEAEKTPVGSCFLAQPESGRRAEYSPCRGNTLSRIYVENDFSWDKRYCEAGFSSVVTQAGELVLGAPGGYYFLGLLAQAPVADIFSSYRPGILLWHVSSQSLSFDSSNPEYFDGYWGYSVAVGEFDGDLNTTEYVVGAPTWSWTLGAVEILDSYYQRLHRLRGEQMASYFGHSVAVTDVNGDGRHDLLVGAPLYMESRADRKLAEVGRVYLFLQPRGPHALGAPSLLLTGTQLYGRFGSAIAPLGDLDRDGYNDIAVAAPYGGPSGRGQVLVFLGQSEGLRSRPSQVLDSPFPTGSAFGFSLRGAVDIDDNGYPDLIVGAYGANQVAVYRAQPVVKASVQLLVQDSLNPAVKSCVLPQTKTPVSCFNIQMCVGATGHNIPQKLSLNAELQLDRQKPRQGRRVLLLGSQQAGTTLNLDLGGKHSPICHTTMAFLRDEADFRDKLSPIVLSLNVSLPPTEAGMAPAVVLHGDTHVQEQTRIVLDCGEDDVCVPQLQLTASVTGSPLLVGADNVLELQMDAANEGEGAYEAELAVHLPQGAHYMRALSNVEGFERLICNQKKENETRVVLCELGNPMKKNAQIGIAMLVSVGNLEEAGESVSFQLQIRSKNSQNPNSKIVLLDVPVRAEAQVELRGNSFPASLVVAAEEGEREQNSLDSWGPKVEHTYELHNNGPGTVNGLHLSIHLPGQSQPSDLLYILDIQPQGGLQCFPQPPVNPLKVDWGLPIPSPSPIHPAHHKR
T1 sequence (P08514 891-1039 limits assumed): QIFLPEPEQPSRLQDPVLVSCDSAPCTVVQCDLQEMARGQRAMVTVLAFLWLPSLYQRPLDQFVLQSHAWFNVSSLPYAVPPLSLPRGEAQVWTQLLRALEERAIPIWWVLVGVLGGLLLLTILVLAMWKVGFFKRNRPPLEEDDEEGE

Consider `O=C(O)CC(CCC1CCN(C(=O)Cc2ccc3c(n2)NCCC3)CC1)c1ccc2c(c1)OCO2` (stereo unspecified), for which the values for the pIC50 in data set [1], in data set [2] and in data set [3] were 6.39, less than 5.00 and 7.12, respectively.

Regarding `O=C(O)CC(NC(=O)C1CCN(C(=O)CCc2ccc3c(n2)NCCC3)CC1)c1ccc2c(c1)OCO2` (stereo unspecified), in data set [4], the area under the curve (AUC) was found to be 79 µM·h. In data set [5], this compound came in with a bioavailability of 2.4%. In data set [6], this compound returned a CI of 0.09 mg/kg/µM/h. This compound had a half-life in data set [7] of 6.7 h. Also, the pIC50 in data set [2] was 4.80; in data set [3] it was 7.66.

As for `O=C(O)CC(c1ccc2c(c1)OCO2)C1CCN(C(=O)CCc2ccc3c(n2)NCCC3)CC1` (stereo unspecified), the pIC50 was 7.02 in data set [1], 5.21 in data set [2] and 7.55 in data set [3].

Consider `O=C(O)CC(c1ccc2c(c1)OCO2)C1CCN(C(=O)CCCc2ccc3c(n2)NCCC3)CC1` (stereo unspecified), for which, in data set [1], the negative logarithm of the IC50 (pIC50) was 7.47.

Consider `N/C(=N\Cc1ccncc1)Nc1cccc(C(=O)N2CCC(C(=O)NC(CC(=O)O)c3ccc4c(c3)OCO4)CC2)c1` (stereo unspecified), for which the negative logarithm of the IC50 (pIC50) is 7.25 in data set [2] and 7.60 in data set [3].

As to `O=C(O)CC(CCC1CCN(C(=O)c2cccc(NC3=NCC(O)CN3)c2)CC1)c1ccc2c(c1)OCO2` (stereo unspecified), in data set [4], the exposure (AUC) came to 21.2 µM·h. The same compound returned a bioavailability in data set [5] of 2.6%. In data set [6], this compound displayed a CI of 0.04 mg/kg/µM/h. The compound also showed a half-life in data set [7] of 5.4 h. The pIC50 was 5.80 in data set [2] and 8.77 in data set [3].

In the case of `O=C(O)CC(NC(=O)C1CCN(C(=O)CCc2ccc3c(n2)NCCC3)CC1)c1cnc2ccccc2c1` (stereo unspecified), the pIC50 in data set [2] is 5.55; in data set [3], 8.59.

As for `O=C(O)CC(NC(=O)C1CCN(C(=O)c2cccc(NC3=CCC(O)CN3)c2)CC1)c1cnc2ccccc2c1` (stereo unspecified), the pIC50 was 6.75 in data set [2] and 8.26 in data set [3].

For `Cc1ncc(C(CC(=O)O)CC2CCN(C(=O)CCc3ccc4c(n3)NCCC4)CC2)cn1` (stereo unspecified), in data set [4], the AUC was less than 0.1 µM·h. In data set [5], the bioavailability worked out at 4%. This compound also showed a CI in data set [6] of 10.4 mg/kg/µM/h. Also, the half-life in data set [7] was 2.6 h.

Turning to `O=C(O)CC(CC1CCN(C(=O)CCCc2ccc3c(n2)NCCC3)CC1)c1ccc2c(c1)OCO2` (stereo unspecified), the pIC50 in data set [1] was 6.66; in data set [2], 5.37; in data set [3] it was 7.69.

Take `O=C(O)CC(CC1CCN(C(=O)CCc2ccc3c(n2)NCCC3)CC1)c1cccnc1` (stereo unspecified): in data set [5], the bioavailability is 0%. In data set [6], this compound displayed a CI of 1.1 mg/kg/µM/h. The compound further had a pIC50 in data set [1] of 8.77.

`COc1ncc(C(CC(=O)O)CC2CCN(C(=O)CCc3ccc4c(n3)NCCC4)CC2)c(OC)n1` (stereo unspecified) registered an AUC in data set [4] of 0.1 µM·h. For the same compound, the bioavailability in data set [5] was found to be 1%. This compound also gave a CI in data set [6] of 1 mg/kg/µM/h. For the same compound, the pIC50 in data set [1] is 8.34; in data set [3], 8.82.

Regarding `O=C(O)CC(CCC1CCN(C(=O)CCCNc2ccccn2)CC1)c1ccc2c(c1)OCO2` (stereo unspecified), the AUC in data set [4] turned out to be 142 µM·h. The compound further had a bioavailability in data set [5] of 96%. Moreover, the CI in data set [6] stood at 0.2 mg/kg/µM/h. Moreover, in data set [7], the half-life is 6.6 h. In addition, the negative logarithm of the IC50 (pIC50) in data set [2] is 4.96; in data set [3], 6.63.

In data set [4], `O=C(O)CC(CCC1CCN(C(=O)CCc2ccc3c(n2)NCCC3)CC1)c1ccc2c(c1)OCO2` (stereo unspecified) gave an AUC of 304 µM·h. The compound also showed a bioavailability in data set [5] of 88%. In data set [6], the CI was found to be 0.09 mg/kg/µM/h. Also, the half-life in data set [7] is 3 h. This compound showed a pIC50 in data set [2] of 5.36.

`O=C(O)CC(NC(=O)C1CCN(C(=O)CCCNC2=NCCN2)CC1)c1cnc2ccccc2c1` (stereo unspecified): the pIC50 in data set [2] was 7.10; in data set [3] it was 8.55.

Compound `O=C(O)CC(CC1CCN(C(=O)CCc2ccc3c(n2)NCCC3)CC1)c1ccc2c(c1)OCO2` (stereo unspecified) returned an exposure (AUC) in data set [4] of 97 µM·h. In data set [5], the bioavailability worked out at 31%. In data set [6], this compound returned a CI of 0.1 mg/kg/µM/h. In addition, the half-life in data set [7] is 2.1 h. For the same compound, in data set [1], the pIC50 is 8.64.

In data set [4], `O=C(O)CC(CC1CCN(C(=O)CCc2ccc3c(n2)NCCC3)CC1)c1ccc2ccccc2c1` (stereo unspecified) gave an AUC of 286 µM·h. The compound also had a bioavailability in data set [5] of 47%. Also, in data set [6], the CI was found to be 0.02 mg/kg/µM/h. Further, the half-life in data set [7] was 5.65 h. Further, the pIC50 is 7.61 in data set [1] and less than 5.00 in data set [2].

In data set [4], `O=C(O)CC(CC1CCN(C(=O)CCc2ccc3c(n2)NCCC3)CC1)c1cccc(F)c1` (stereo unspecified) showed an area under the curve (AUC) of 2.7 µM·h. This compound registered a bioavailability in data set [5] of 14%. This compound also returned a CI in data set [6] of 0.5 mg/kg/µM/h. The same compound gave a half-life in data set [7] of 1.7 h. The negative-log IC50 (pIC50) was 8.55 in data set [1] and less than 5.00 in data set [2].

For `O=C(O)CC(NC(=O)C1CCN(C(=O)c2cccc(NC3=CCCCN3)c2)CC1)c1ccc2c(c1)OCO2` (stereo unspecified), the negative-log IC50 (pIC50) is 6.68 in data set [2] and 7.98 in data set [3].

As to `O=C(O)CC(c1ccc2c(c1)OCO2)C1CCN(C(=O)Cc2ccc3c(n2)NCCC3)CC1` (stereo unspecified), the negative logarithm of the IC50 (pIC50) was 6.11 in data set [1] and less than 5.00 in data set [8].

For `O=C(O)C[C@H](NC(=O)[C@@H]1CCCN(C(=O)CCC2CCNCC2)C1)c1cccnc1` [ELAROFIBAN], the negative logarithm of the IC50 (pIC50) was 9.82 in data set [2] and less than 4.30 in data set [3].
